Test results published in publication PMC6459484, “Synthetic surfactin analogues have improved anti-PEDV properties” (PLoS ONE, 2019).
Converted amounts (≈) assume the structure as drawn. Square brackets hold non-standard residues; d marks the D form. Peptide text beside a SMILES is read from it. * marks the point of attachment. Palmitoyl = CCCCCCCCCCCCCCCC(=O)*

Experiments:
[1] = HPLC retention time as measure of hydrophobicity; type: physicochemical; conditions: used as indicator of total hydrophobicity, SLP1>SLP2>SLP3
Description: The cationic properties of synthetic lipopeptides are thought to be related to their antibacterial and hemolytic activities. […] Cyclic lipopeptides are reported to more readily lyse bacterial membranes than linear or branched lipopeptides. […] It has also been reported that the total hydrophobicity of synthetic lipopeptides is inversely related to hemolytic activity, although this conclusion was from data on only 3 related samples [27]. […] The relative hydrophobicity of SLP1, 2, and 3 is SLP1>SLP2>SLP3, as indicated by their HPLC retention times (17.6, 16.7, and 14.5 min, respectively).

PEDV CV777 = assay: Plaque reduction assay (anti-PEDV activity); type: cell-based, Porcine epidemic diarrhea virus
Procedure: Cercopithecus aethiops kidney epithelial cells (Vero, ATCC, CCL-81) were cultured in high glucose DMEM (Gibco, US), supplemented with 10% fetal bovine serum (FBS, GIBCO), at 37 °C in a 5% CO2 humidified atmosphere. Cells were routinely seeded at a density of 2×10^5 /mL in plastic tissue culture flasks (25 cm^2 flasks, Corning, USA) and passaged every 3–4 days. PEDV CV777 was provided by the Jiangsu Academy of Agricultural Sciences (JAAS).
Vero cells were seeded at 2 × 10^5 cells/well in 24-well tissue culture plates and incubated 18–24 h at 37 °C until approximately 95% confluency was reached. 100 PFU of PEDV mixed with an equal volume of SLP in DMEM or DMEM alone were incubated 10 minutes at 37 °C, then added into the wells of the Vero cells and incubated 30 minutes at 4 °C. Cells were washed 3 times with DMEM then overlaid with DMEM/1% agar and incubated 72 hours at 37 °C. The cells were fixed with 4% formaldehyde, then stained with 0.1% crystal violet after the agar overlay was removed. The data are representative of 3 biological replicates and each plaque assay was performed in triplicate and values are expressed as means ± the standard deviation. Curve fitting and EC50 were calculated with GraphPad Prism 6 using the log[inhibitor] vs. response equation.
The SLPs were tested for anti-PEDV activity using a plaque reduction assay. Serial dilutions of SLPs were incubated with an equal volume of PEDV then aliquoted onto precooled cells in 12-well plates. After the virus has adsorbed to the cells at 4 °C, SLPs were washed away. The adsorbed virus particles were then counted by plaque forming assays (Fig 2A). The results were fitted to a sigmoid-curve and plotted Fig 2B. All SLPs have potent anti-PEDV effects above 50 μg/ml, but differences in their anti-PEDV effect.
Fig 2 Anti-PEDV activities of lipopeptides. (A) PEDV was incubated with series concentrations of SLPs for 10 minutes at 37 °C. After washing cells of unadsorbed virus, the remaining infectious particles was detected by plaque assay. (B) Anti-PEDV activity (% remaining PFU) plotted as a function of lipopeptide concentration. The results of three independent experiments are shown as means ± standard deviation. 100% represents plaque counts in the control (no lipopeptide) sample.

porcine RBCs = type: cell-based; conditions: for CC50 (50% cytotoxicity concentration, hemolysis): red cells of porcine, 1 h
Procedure: Hemolytic activity was measured according to the methods described in Jingdan, with some modifications. Briefly, serial dilutions of SLPs were added to 200 uL of a 1% suspension of porcine RBCs in PBS, followed by incubation for 1 h at 37 °C. Cells were centrifuged at 1000 g for 10 min, then 100 uL of each supernatant was transferred to wells of a 96-well plate. The optical density at 540 nm was measured using a microplate reader (Infinite 200 PRO, Tecan Group Ltd., Switzerland) and % hemolysis was calculated using the formula: Hemolysis(%)=ODS-ODB/ODP-ODB×100% where ODS, ODB, and ODP represent the optical density of the SLP-treated samples, negative control and positive control, respectively. 1% Triton X-100 was used for the positive control. Each sample was run in triplicate.
Fig 3 Hemolytic activity of lipopeptides. (A) The indicated concentration of SLPs were added to a 1% porcine RBC suspension in PBS, followed by incubation for 1 h at 37 °C and centrifugation. Pictures were taken after collecting a portion of the supernatant for quantification of hemolysis. (B) Hemolytic curve. Hemolysis (measured at OD540) is shown as a function of SLP concentration. 100% represents the OD obtained using 0.1% Triton X-100-treated red blood cells.

[2] = Critical micelle concentration by surface tension (ring method); type: physicochemical; conditions: samples stood 30 min at 22 °C, intersection of two linear regression lines
Procedure: Surface tensions were measured using the ring method. Samples were freshly prepared in a testing flask and allowed to stand for 30 minutes at 22 °C. Surface tension measurements were made using a surface tensiometer (HLD-LST-II, HENLIDA Co., Ltd, China). Linear regressions of the drop and the flat area were performed separately for the surface tension-concentration curve. The concentration at the intersection of the two lines is the critical micelle concentration (CMC).
The CMC was calculated by measuring the surface tension of each SLP over a range of concentrations. […] Linear regressions were performed independently using the data on the descending part of the curve below the CMC and the equilibrium part above the CMC. The intersection of the linear regression lines corresponds to the CMC (Table 3).
Fig 4 Critical micelle concentrations of the SLPs. CMCs were determined for SDS, surfactin, and SLPs by surface tension. The intersection of the two linear regression lines corresponds to the CMC value, (shown by the dotted lines).

PEDV [3] = conditions: cited from earlier work
Description: In summary, we synthesized 10 surfactin analogues and characterized them to identify those with enhanced anti-viral properties. […] SLP5 is therefore a more promising synthetic surfactin analogue. Compared with surfactin, the structure of SLP5 is distinguished by its linear lipopeptide and the additional carboxyl grou ...

PEDV [4] = assay: Time of addition assay (viral N protein by western blot, viral RNA by qRT-PCR); type: cell-based, Porcine epidemic diarrhea virus; conditions: Vero cells, 1000 PFU PEDV, harvested 12 hpi, SLP5 50 μg/ml, surfactin 20 μg/ml
Procedure: Time of addition assay was performed according to the procedures described, with modifications. Confluent Vero cells in 12-well plates were infected with 1000 PFU of PEDV and incubated for 1 hr at 4 °C to synchronize infection. The inoculum was removed and 1 mL of 37 °C DMEM was added to each well, cells were then placed at 37 °C in a humidified incubator. At the indicated time points, SLP5, surfactin, or dielaidoyl-phosphatidylethanolamine (DEPE, AvantiPolarLipids, Alabaster, AL) was added dropwise to cells or virus to a final concentration of 50 μg/ml, 20 μg/ml, or 5 μg/ml and incubated a further 12 hours at 37 °C. Viral nucleic acid and protein levels in the cells were measured by qRT-PCR and western-blot respectively. The data shown is representative of 3 independent experiments.
Total RNA was extracted from cells using TRIzol Reagent (Invitrogen) according to the manufacturer’s instructions. cDNA was generated by reverse transcription using HiScript TM QRT SuperMix for qPCR (Vazyme) according to the manufacturer’s instructions. PEDV nucleic acid levels were assessed by measuring the viral nucleoprotein (N) using qRT-PCR with the TaKaRa SYBR Green qPCR Kit (TaKaRa). Primer sequences were as follows: PEDV-N-F (sense), 5’-[…]-3’; PEDV-N-R (antisense), 5’-[…]-3’; C-sabaeus-GAPDH-F, 5’-[…]-3’; C-sabaeus-GAPDH-R, 5’-[…]-3’. Gene level was calculated using the comparative Ct method and normalized to the endogenous levels of GAPDH.
Boiled cell lysates were subjected to SDS-PAGE then transferred to PVDF membrane (Roche, Basel, Switzerland) using a semi-dry transfer apparatus (GE, Little Chalfont, Buckinghamshire, UK). Membranes were blocked in 5% non-fat milk in TBS containing 0.01% Tween-20 (TBST) then incubated overnight at 4 °C with anti-PEDV N-protein monoclonal antibody (Median Diagnostics, South Korea) diluted in TBST with 1% BSA. Membranes were washed 30 min in TBST followed by incubation for 1 h at RT with 1:5000 HRP goat anti-mouse IgG antibody (ABGENT, San Diego, CA, USA) then thrice washed for 15 min in TBST. Membranes were incubated with ECL reagent (Thermo, Waltham, MA, USA) and imaged using a ChemiDoc™ system (Bio-Rad, Hercules, CA, USA).
Since SLP5 was the most promising surfactin analogue, we chose it for further study. Time of addition assays were performed to determine whether the SLP5 exerts its anti-PEDV effect at the same stage during infection as surfactin. Since surfactin acts directly on virions, the experiment was designed to examine events early in the infection process. Fig 6A summarizes the experimental plan and the eight treatments tested. Briefly, SLP5, surfactin, or DEPE was added to virus alone, cells alone, or to cells and virus together prior to infection, during virus adsorption, during virus invasion (1 h post infection at 37 °C), or during replication (1–12 hpi). Samples were harvested 12 hours after infection, and analyzed to measure cellular levels of viral protein (Fig 6B and 6C) and viral RNA (Fig 6D). […] Other antiviral mechanisms of SLP5 and surfactin cannot be ruled out since PEDV replication is inhibited to different degrees in some of the other treatment groups.
Fig 6 Time-of-addition experiments. (A) Vero cells were treated with SLP5, surfactin, or DEPE at different time points before, during, and after infection. […] (B) The PEDV nucleoprotein was detected by Western-blot, and (C) quantitated by band intensity relative to the internal control, GAPDH. (D) The PEDV genome was detected by qRT-PCR. […]

[5] = 100 PFU PEDV pre-incubated with lipopeptide 10 min at 37 °C, adsorbed to Vero cells 30 min at 4 °C, washed, agar overlay 72 h, 3 biological replicates each in triplicate, mean ± SD, log[inhibitor] vs. response fit

Compound: CCCCCCCCCCCCCCCC(=O)N[C@@H](CCC(=O)O)C(=O)N[C@H](C(=O)N[C@H](CC(C)C)C(=O)N[C@@H](C)C(=O)N[C@@H](CC(=O)O)C(=O)N[C@H](CC(C)C)C(=O)N[C@H](C(N)=O)C(C)C)C(C)C [SLP1] (Palmitoyl-EV[dL]AD[dL]V-NH2)
- HPLC retention time (relative hydrophobicity) [1]: 17.6 min
- EC50 (PEDV CV777; 72 h): 8.0 ± 0.3 µg/mL (≈ 8.04 µM)
- Hemolytic activity, result in words (porcine RBCs): slightly weaker than that of surfactin
- CC50 (50% cytotoxicity concentration, hemolysis) (porcine RBCs): 52.6 ± 2.3 µg/mL (≈ 52.8 µM)
- CMC [2]: 5.7 µg/mL

Compound: CCCCCCCCCCCCCCCC(=O)N[C@@H](CCC(=O)O)C(=O)N[C@H](C(=O)N[C@H](CC(C)C)C(=O)N[C@@H](CC(=O)O)C(=O)N[C@H](CC(C)C)C(N)=O)C(C)C [SLP3] (Palmitoyl-EV[dL]D[dL]-NH2)
- HPLC retention time (relative hydrophobicity) [1]: 14.5 min
- EC50 (PEDV CV777; [5]): 16.9 ± 1.6 µg/mL (≈ 20.5 µM)
- CC50 (50% cytotoxicity concentration, hemolysis) (porcine RBCs): 69.7 ± 2.6 µg/mL (≈ 84.5 µM)
- CMC [2]: 6.4 µg/mL

Compound: CCCCCCCCCCCCCCCC(=O)N[C@@H](CCC(=O)O)C(=O)N[C@H](C(=O)N[C@H](CC(C)C)C(=O)N[C@@H](CC(=O)O)C(=O)N[C@H](CC(C)C)C(=O)N[C@H](C(N)=O)C(C)C)C(C)C [SLP2] (Palmitoyl-EV[dL]D[dL]V-NH2)
- HPLC retention time (relative hydrophobicity) [1]: 16.7 min
- EC50 (PEDV CV777; 72 h): 5.3 ± 0.5 µg/mL (≈ 5.73 µM)
- Anti-PEDV potency compared with surfactin (PEDV CV777; plaque reduction assay, result in words): higher potency than surfactin
- CC50 (50% cytotoxicity concentration, hemolysis) (porcine RBCs): 33.0 ± 1.6 µg/mL (≈ 35.7 µM)
- CMC [2]: 4.2 µg/mL

Compound: Surfactin
- Protection of piglets from PEDV challenge (PEDV [3]): protect piglets from PEDV challenge
- EC50 (PEDV CV777; [5]): 11.4 ± 0.7 µg/mL
- PEDV replication (nucleic acid and protein levels), reagent present throughout the experiment (treatment group 2) or at any stage (PEDV [4]; DEPE 5 μg/ml, 3 independent experiments): little PEDV replication occurs
- PEDV replication, treatment group 5 (PEDV [4]; same as group 2 (little replication)): act directly on the virus
- CMC [2]: 12.1 µg/mL
